Data: US11780826B2 (Amgen Inc., priority 2017, dated 2023)

System: Bovine cardiac myofibrils
Test: In vitro model of dose-dependent myofibril ATPase modulation (AC1.4, pyruvate kinase/lactate dehydrogenase-coupled ATPase assay at pCa25)
Type: biochemical
Settings: concentration at which ATPase activity was 1.4-fold higher than the bottom of the dose curve, mean of a minimum of two independent tests
Method in brief: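 Compound dilutions were premixed with myofibrils, coupling enzymes, EGTA and CaCl2, then the reaction was started with an equal volume carrying ATP (final 1 mM), NADH and PEP. ATP turnover was followed at 340 nm, and dose responses were fit to a four-parameter equation.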

Row | Structure (SMILES) | AC1.4
1 | O=C(NCc1ccc(C(F)(F)F)cc1)[C@H]1CCCN1C(=O)[C@H]1CCCN(S(=O)(=O)N2CC(c3cccc(Cl)c3)C2)C1 [Example 398, 1-(((3S)-1-((3-(3-chlorophenyl)-1-azetidinyl)sulfonyl)-3-piperidinyl)carbonyl)-N-(4-(trifluoromethyl)benzyl)-D-prolinamide] | 1.4045 µM
2 | O=C(N[C@@H](c1cc(F)c(Cl)cc1F)C1COC1)[C@H]1C[C@@H](O)CN1C(=O)c1ccnc(C(F)(F)F)c1 [Example 399, (4R)-N-((R)-(4-chloro-2,5-difluorophenyl)(3-oxetanyl)methyl)-4-hydroxy-1-((2-(trifluoromethyl)-4-pyridinyl)carbonyl)-D-prolinamide] | 1.4045 µM
3 | CS(=O)(=O)c1cccc(C(=O)N2CC=C[C@@H]2C(=O)N[C@@H](c2ccc(C(F)(F)F)cc2F)C2CC2)c1 [Example 401, (2R)-N-((R)-cyclopropyl(2-fluoro-4-(trifluoromethyl)phenyl)methyl)-1-(3-(methylsulfonyl)benzoyl)-2,5-dihydro-1H-pyrrole-2-carboxamide] | 1.378 µM
4 | N#CC1CN(S(=O)(=O)N2CCC[C@H](C(=O)N3CCC[C@@H]3C(=O)N[C@H](CO)c3cccc(C(F)(F)F)c3)C2)C1 [Example 404, 1-(((3S)-1-((3-cyano-1-azetidinyl)sulfonyl)-3-piperidinyl)carbonyl)-N-((1S)-2-hydroxy-1-(3-(trifluoromethyl)phenyl)ethyl)-D-prolinamide] | 1.4525 µM
5 | C[C@H](O)[C@@H](NC(=O)[C@H]1C[C@H]2C[C@H]2N1C(=O)c1cccc(S(C)(=O)=O)c1)c1cc(F)c(Cl)cc1F [Example 405, (1R,3R,5R)-N-((1S,2S)-1-(4-chloro-2,5-difluorophenyl)-2-hydroxypropyl)-2-(3-(methylsulfonyl)benzoyl)-2-azabicyclo[3.1.0]hexane-3-carboxamide] | 1.4065 µM
6 | N#CC1CN(S(=O)(=O)N2CCC[C@H](C(=O)N3CCC[C@@H]3C(=O)NCc3cccc(Cl)c3F)C2)C1 [Example 406, N-(3-chloro-2-fluorobenzyl)-1-(((3S)-1-((3-cyano-1-azetidinyl)sulfonyl)-3-piperidinyl)carbonyl)-D-prolinamide] | 1.4675 µM
7 | CS(=O)(=O)c1cccc(C(=O)N2C[C@H]3C[C@H]3[C@@H]2C(=O)N[C@@H](c2ccc(C(F)(F)F)cc2F)C2CC2)c1 [Example 407, (1R,2R,5S)-N-((R)-cyclopropyl(2-fluoro-4-(trifluoromethyl)phenyl)methyl)-3-(3-(methylsulfonyl)benzoyl)-3-azabicyclo[3.1.0]hexane-2-carboxamide] | 1.427 µM
8 | CN(C)S(=O)(=O)c1cccc(C(=O)N2CCC[C@@H]2C(=O)N[C@H](c2ccc(Cl)c(F)c2)C2CC2)c1 [Example 408, N-((S)-(4-chloro-3-fluorophenyl)(cyclopropyl)methyl)-1-(3-(dimethylsulfamoyl)benzoyl)-D-prolinamide] | 1.479 µM
9 | O=C(N[C@@H](c1ccc(C(F)(F)F)cc1F)C1COC1)[C@H]1C[C@H]2C[C@H]2N1C(=O)c1cc(C(F)(F)F)ccn1 [Example 409, (1R,3R,5R)-N-((R)-(2-fluoro-4-(trifluoromethyl)phenyl)(3-oxetanyl)methyl)-2-((4-(trifluoromethyl)-2-pyridinyl)carbonyl)-2-azabicyclo[3.1.0]hexane-3-carboxamide] | 1.484 µM
10 | N#CC1CN(S(=O)(=O)N2CCC[C@H](C(=O)N3CCC[C@@H]3C(=O)NCc3ccc(C(F)(F)F)nc3)C2)C1 [Example 410, 1-(((3S)-1-((3-cyano-1-azetidinyl)sulfonyl)-3-piperidinyl)carbonyl)-N-((6-(trifluoromethyl)-3-pyridinyl)methyl)-D-prolinamide] | 1.4853 µM
11 | CC(C)(C#N)c1cccc(C(=O)N2[C@@H](C(=O)N[C@@H](c3ccc(C(F)(F)F)cc3F)C3COC3)C[C@H]3C[C@H]32)c1 [Example 412, (1R,3R,5R)-2-(3-(2-cyano-2-propanyl)benzoyl)-N-((R)-(2-fluoro-4-(trifluoromethyl)phenyl)(3-oxetanyl)methyl)-2-azabicyclo[3.1.0]hexane-3-carboxamide] | 1.495 µM
12 | CS(=O)(=O)c1cc(C(=O)N2C[C@@H](F)C[C@@H]2C(=O)N[C@@H](c2cc(F)c(C(F)(F)F)cc2F)C2CC2)ccn1 [Example 416, (4S)-N-((R)-cyclopropyl(2,5-difluoro-4-(trifluoromethyl)phenyl)methyl)-4-fluoro-1-((2-(methylsulfonyl)-4-pyridinyl)carbonyl)-D-prolinamide] | 1.528 µM
13 | C[C@H](C(=O)N[C@H](C)c1ccc(Cl)cc1F)N(C)C(=O)[C@@H]1CN(S(=O)(=O)N2CC(C#N)C2)CCO1 [Example 419, (2S)-N-((2R)-1-(((1R)-1-(4-chloro-2-fluorophenyl)ethyl)amino)-l-oxo-2-propanyl)-4-((3-cyano-1-azetidinyl)sulfonyl)-N-methyl-2-morpholinecarboxamide] | 1.542 µM
14 | CS(=O)(=O)c1cc(C(=O)N2CCC[C@@H]2C(=O)N[C@@H](c2cc(F)c(Cl)cc2F)C2CC2)ccn1 [Example 421, N-((R)-(4-chloro-2,5-difluorophenyl)(cyclopropyl)methyl)-1-((2-(methylsulfonyl)-4-pyridinyl)carbonyl)-D-prolinamide] | 1.4335 µM
15 | CS(=O)(=O)N1CC(F)(c2cccc(C(=O)N3[C@@H](C(=O)N[C@@H](c4ccc(C(F)(F)F)cc4F)C4CC4)C[C@H]4C[C@H]43)c2)C1 [Example 422, (1R,3R,5R)-N-((R)-cyclopropyl(2-fluoro-4-(trifluoromethyl)phenyl)methyl)-2-(3-(3-fluoro-1-(methylsulfonyl)-3-azetidinyl)benzoyl)-2-azabicyclo[3.1.0]hexane-3-carboxamide] | 1.5655 µM

Continued, values first:

Row | AC1.4 | Structure (SMILES)
16 | 1.361 µM | O=C(N[C@@H](c1cc(F)c(Cl)cc1F)C1CC1)[C@H]1C[C@@H](O)CN1C(=O)c1ccnc(C(F)(F)F)c1 [Example 397, (4R)-N-((R)-(4-chloro-2,5-difluorophenyl)(cyclopropyl)methyl)-4-hydroxy-1-((2-(trifluoromethyl)-4-pyridinyl)carbonyl)-D-prolinamide]
17 | 1.4048 µM | N#CC1CN(S(=O)(=O)N2CCC[C@H](C(=O)N3CCC[C@@H]3C(=O)NCc3cnc(C(F)(F)F)nc3)C2)C1 [Example 400, 1-(((3S)-1-((3-cyano-1-azetidinyl)sulfonyl)-3-piperidinyl)carbonyl)-N-((2-(trifluoromethyl)-5-pyrimidinyl)methyl)-D-prolinamide]
18 | 1.4025 µM | CCS(=O)(=O)c1cccc(C(=O)N2[C@@H](C(=O)N[C@@H](c3ccc(Cl)cc3)C3COC3)C[C@H]3C[C@H]32)c1 [Example 403, (1R,3R,5R)-N-((R)-(4-chlorophenyl)(3-oxetanyl)methyl)-2-(3-(ethylsulfonyl)benzoyl)-2-azabicyclo[3.1.0]hexane-3-carboxamide]
19 | 1.511 µM | N#CC1CN(S(=O)(=O)N2CCC[C@H](C(=O)N3CCC[C@@H]3C(=O)NCc3ccc(CF)cc3)C2)C1 [Example 413, 1-(((3S)-1-((3-cyano-1-azetidinyl)sulfonyl)-3-piperidinyl)carbonyl)-N-(4-(fluoromethyl)benzyl)-D-prolinamide]
20 | 1.515 µM | CC(C)c1cccc(C(=O)N2CCC[C@@H]2C(=O)N[C@@H](c2ccc(C(F)(F)F)cc2F)C2CC2)c1 [Example 414, N-((R)-cyclopropyl(2-fluoro-4-(trifluoromethyl)phenyl)methyl)-1-(3-(2-propanyl)benzoyl)-D-prolinamide]
21 | 1.522 µM | C[C@H](C(=O)N[C@H](C)c1ccc(C(F)(F)F)cc1)N(C)C(=O)[C@H]1CCCN(S(=O)(=O)N2CC(C#N)C2)C1 [Example 415, (3S)-1-((3-cyano-1-azetidinyl)sulfonyl)-N-methyl-N-((1R)-1-methyl-2-oxo-2-(((1R)-1-(4-(trifluoromethyl)phenyl)ethyl)amino)ethyl)-3-piperidinecarboxamide]
22 | 1.53 µM | COc1cc(C)ccc1CNC(=O)[C@H]1CCCN1C(=O)[C@H]1CCCN(S(=O)(=O)N2CC(C#N)C2)C1 [Example 417, 1-(((3S)-1-((3-cyano-1-azetidinyl)sulfonyl)-3-piperidinyl)carbonyl)-N-(2-methoxy-4-methylbenzyl)-D-prolinamide]
23 | 1.5305 µM | N#CC1CN(S(=O)(=O)N2CCC[C@H](C(=O)N3CCC[C@@H]3C(=O)NCc3cccc(F)c3Cl)C2)C1 [Example 418, N-(2-chloro-3-fluorobenzyl)-1-(((3S)-1-((3-cyano-1-azetidinyl)sulfonyl)-3-piperidinyl)carbonyl)-D-prolinamide]
24 | 1.5455 µM | N#C[C@H]1C[C@H](S(=O)(=O)c2cccc(C(=O)N3CCCC[C@@H]3C(=O)NCc3ccc(Cl)nc3)c2)C1 [Example 420, (2R)-N-((6-chloro-3-pyridinyl)methyl)-1-((3-((trans-3-cyanocyclobutyl)sulfonyl)phenyl)carbonyl)-2-piperidinecarboxamide]
25 | 1.5735 µM | N#CC1CN(S(=O)(=O)N2CCC[C@H](C(=O)N3CCC[C@@H]3C(=O)NCc3c(F)cc(F)c(F)c3F)C2)C1 [Example 423, 1-(((3S)-1-((3-cyano-1-azetidinyl)sulfonyl)-3-piperidinyl)carbonyl)-N-(2,3,4,6-tetrafluorobenzyl)-D-prolinamide]
26 | 1.5805 µM | O=C(NCc1ccc(C(F)(F)F)cc1)[C@H]1CCCN1C(=O)[C@H]1CCCN(S(=O)(=O)N2CC(Oc3ccc(Cl)cc3)C2)C1 [Example 424, 1-(((3S)-1-((3-(4-chlorophenoxy)-1-azetidinyl)sulfonyl)-3-piperidinyl)carbonyl)-N-(4-(trifluoromethyl)benzyl)-D-prolinamide]
27 | 1.5805 µM | NC(=O)[C@H]1C[C@@H](S(=O)(=O)N2CCC[C@H](C(=O)N3CCC[C@@H]3C(=O)NCc3ccc(C(F)(F)F)cc3)C2)C1 [Example 425, 1-(((3S)-1-((cis-3-carbamoylcyclobutyl)sulfonyl)-3-piperidinyl)carbonyl)-N-(4-(trifluoromethyl)benzyl)-D-prolinamide]
